Test results reported in ChEMBL document CHEMBL1148343, “Fragment-based drug discovery” (J Med Chem, 2004).

How the values were obtained:
[1] = Oral bioavailability was determined; Not orally available; assay type: ADME, organism-based; details: in vivo
Human papillomavirus [2] = experiment: Inhibitory concentration against DNA-binding domain of the human papillomavirus protein E2; assay type: functional
Human papillomavirus [3] = experiment: Dissociation constant against DNA-binding domain of the human papillomavirus protein E2; assay type: functional
[4] = biological target: Neuraminidase (Influenza A virus (A/Puerto Rico/8/1934(H1N1)), UniProt P03468)
Description: Inhibition of influenza A viral enzyme neuraminidase

Stromelysin-1 [5] = biological target: T1, Stromelysin-1 (Homo sapiens, UniProt P08254)
Description: Inhibition of Matrix Metalloprotease-3 (MMP-3)

Caspase-3 = Caspase-3 (Homo sapiens, UniProt P42574); experiment: Binding affinity against Caspase-3
[6] = Dissociation constant against Erythromycin-Resistance Methylase AM
Interstitial collagenase = Interstitial collagenase (Homo sapiens, UniProt P03956)
Description: Inhibition of Matrix Metalloprotease-1 (MMP-1)

Collagenase 3 = Collagenase 3 (Homo sapiens, UniProt P45452); experiment: Inhibition of Matrix Metalloprotease-13 (MMP-13)
Nucleic Acid = experiment: Dissociation constant towards Mutant U1061A RNA; assay type: nucleic-acid assay
[7] = biological target: Mitogen-activated protein kinase 10 (Homo sapiens, UniProt P53779); experiment: Affinity for c-Jun N-terminal kinase 3
[8] = Oral bioavailability; assay type: ADME, organism-based; details: eutheria, in vivo
[9] = biological target: Proto-oncogene tyrosine-protein kinase Src (Homo sapiens, UniProt P12931); experiment: Inhibition of c-Src tyrosine kinase
Acetylcholinesterase [10] = biological target: Acetylcholinesterase (Rattus norvegicus, UniProt P37136); experiment: Inhibitory concentration against Acetylcholinesterase in rat brain; assay type: tissue-based
[11] = Dissociation constant against FK506 binding protein
Adenosine deaminase = Adenosine deaminase (Homo sapiens, UniProt P00813)
Description: Binding affinity towards adenosine deaminase

[12] = biological target: Adenylosuccinate synthetase isozyme 2 (Homo sapiens, UniProt P30520)
Description: Inhibitory concentration against Adenylosuccinate synthetase

Stromelysin-1 [13] = biological target: T1, Stromelysin-1; experiment: Dissociation constant for Matrix Metalloprotease-3 (MMP-3)
[14] = biological target: Intercellular adhesion molecule (ICAM-1), Integrin alpha-L/beta-2 (Homo sapiens, UniProt P05107+P20701)
Description: Inhibition of Leukocyte function associated antigen 1 (LFA-1)

[15] = biological target: Urokinase-type plasminogen activator (Homo sapiens, UniProt P00749)
Description: Binding affinity towards Urokinase-type plasminogen activator

[16] = Half life was determined; assay type: ADME; details: rat
[17] = biological target: Tyrosine-protein phosphatase non-receptor type 1 (Homo sapiens, UniProt P18031)
Description: Dissociation constant for Protein-tyrosine phosphatase 1B

[18] = biological target: T2, Glycogen phosphorylase, liver form (Mus musculus, UniProt Q9ET01)
T2 sequence (Q9ET01 whole entry): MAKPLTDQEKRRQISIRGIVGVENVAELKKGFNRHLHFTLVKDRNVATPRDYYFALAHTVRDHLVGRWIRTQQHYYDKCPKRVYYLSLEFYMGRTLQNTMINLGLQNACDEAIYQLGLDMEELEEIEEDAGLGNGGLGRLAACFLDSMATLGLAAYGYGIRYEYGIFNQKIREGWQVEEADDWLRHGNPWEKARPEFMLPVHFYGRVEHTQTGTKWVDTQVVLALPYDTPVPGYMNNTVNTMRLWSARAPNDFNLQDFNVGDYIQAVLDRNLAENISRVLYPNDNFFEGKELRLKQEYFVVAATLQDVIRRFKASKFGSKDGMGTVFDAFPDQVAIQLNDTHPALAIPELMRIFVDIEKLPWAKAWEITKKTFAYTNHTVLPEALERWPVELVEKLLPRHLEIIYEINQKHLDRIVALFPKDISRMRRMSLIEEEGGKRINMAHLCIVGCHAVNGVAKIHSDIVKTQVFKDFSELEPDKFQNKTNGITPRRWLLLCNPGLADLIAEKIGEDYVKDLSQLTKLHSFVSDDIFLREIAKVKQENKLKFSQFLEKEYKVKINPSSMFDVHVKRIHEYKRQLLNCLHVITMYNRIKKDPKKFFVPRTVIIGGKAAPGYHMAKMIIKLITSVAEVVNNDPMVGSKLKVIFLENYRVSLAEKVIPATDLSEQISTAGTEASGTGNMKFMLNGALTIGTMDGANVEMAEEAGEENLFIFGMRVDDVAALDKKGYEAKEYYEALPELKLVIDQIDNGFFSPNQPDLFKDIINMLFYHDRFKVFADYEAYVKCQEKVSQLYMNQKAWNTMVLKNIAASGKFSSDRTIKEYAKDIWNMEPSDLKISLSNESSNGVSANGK
Description: Inhibitory concentration against glycogen phosphorylase

Thymidylate synthase [19] = biological target: Thymidylate synthase (Lactobacillus casei, UniProt P00469)
Bcl-2-like protein 1 = Bcl-2-like protein 1 (Homo sapiens, UniProt Q07817); experiment: Inhibitory concentration against B-Cell Lymphoma xL (Bcl-xL) Bak-peptide binding region; assay type: functional
[20] = Binding affinity against Erythromycin-Resistance Methylase AM
Thymidylate synthase [21] = biological target: Thymidylate synthase (Homo sapiens, UniProt P04818); experiment: Tested for binding affinity towards thymidylate synthase
[22] = Inhibition of Interleukin-2 receptor
[23] = biological target: Matrix metalloproteinase-9 (Homo sapiens, UniProt P14780); experiment: Inhibition of gelatinase B, matrix metalloprotease-9 (MMP-9)
[24] = biological target: Cyclin-dependent kinase 2 (Homo sapiens, UniProt P24941); experiment: Inhibition of Cyclin-Dependent Kinase 2
Acetylcholinesterase [25] = biological target: Acetylcholinesterase (Mus musculus, UniProt P21836)
Sequence of Acetylcholinesterase (Mus musculus, UniProt P21836) (P21836 whole entry): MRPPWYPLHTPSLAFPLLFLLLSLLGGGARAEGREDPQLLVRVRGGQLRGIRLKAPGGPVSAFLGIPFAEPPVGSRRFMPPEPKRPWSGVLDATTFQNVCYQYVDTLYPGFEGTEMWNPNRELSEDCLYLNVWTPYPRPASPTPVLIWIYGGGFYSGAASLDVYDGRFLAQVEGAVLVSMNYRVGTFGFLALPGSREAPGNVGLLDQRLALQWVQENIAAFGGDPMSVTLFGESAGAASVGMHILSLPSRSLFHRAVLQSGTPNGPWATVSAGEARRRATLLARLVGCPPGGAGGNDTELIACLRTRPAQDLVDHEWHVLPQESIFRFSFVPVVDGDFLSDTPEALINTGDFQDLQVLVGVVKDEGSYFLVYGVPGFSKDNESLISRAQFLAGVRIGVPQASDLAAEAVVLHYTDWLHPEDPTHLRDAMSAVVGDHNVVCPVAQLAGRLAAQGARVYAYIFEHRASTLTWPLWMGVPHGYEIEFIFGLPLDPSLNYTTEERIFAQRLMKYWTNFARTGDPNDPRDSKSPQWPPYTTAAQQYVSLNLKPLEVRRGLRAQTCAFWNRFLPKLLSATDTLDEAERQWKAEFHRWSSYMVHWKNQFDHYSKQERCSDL
Description: Dissociation constant towards Acetylcholinesterase in mouse

Sequence of Proto-oncogene tyrosine-protein kinase Src (P12931 2-536 limits assumed): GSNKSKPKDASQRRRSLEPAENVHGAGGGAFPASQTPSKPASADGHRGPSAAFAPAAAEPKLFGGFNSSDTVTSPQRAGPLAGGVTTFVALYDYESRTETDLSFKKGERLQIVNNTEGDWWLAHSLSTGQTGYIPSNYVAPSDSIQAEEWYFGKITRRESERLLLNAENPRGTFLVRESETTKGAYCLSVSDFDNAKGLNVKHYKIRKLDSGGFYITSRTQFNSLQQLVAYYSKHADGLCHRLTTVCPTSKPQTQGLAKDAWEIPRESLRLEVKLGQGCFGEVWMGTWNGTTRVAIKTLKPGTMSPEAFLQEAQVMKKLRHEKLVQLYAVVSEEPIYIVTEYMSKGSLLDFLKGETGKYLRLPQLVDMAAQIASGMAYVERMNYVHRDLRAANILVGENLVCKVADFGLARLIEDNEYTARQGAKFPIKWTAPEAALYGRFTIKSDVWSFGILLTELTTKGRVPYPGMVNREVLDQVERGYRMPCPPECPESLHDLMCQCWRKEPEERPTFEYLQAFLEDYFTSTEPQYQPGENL
T1 sequence (P08254 whole entry): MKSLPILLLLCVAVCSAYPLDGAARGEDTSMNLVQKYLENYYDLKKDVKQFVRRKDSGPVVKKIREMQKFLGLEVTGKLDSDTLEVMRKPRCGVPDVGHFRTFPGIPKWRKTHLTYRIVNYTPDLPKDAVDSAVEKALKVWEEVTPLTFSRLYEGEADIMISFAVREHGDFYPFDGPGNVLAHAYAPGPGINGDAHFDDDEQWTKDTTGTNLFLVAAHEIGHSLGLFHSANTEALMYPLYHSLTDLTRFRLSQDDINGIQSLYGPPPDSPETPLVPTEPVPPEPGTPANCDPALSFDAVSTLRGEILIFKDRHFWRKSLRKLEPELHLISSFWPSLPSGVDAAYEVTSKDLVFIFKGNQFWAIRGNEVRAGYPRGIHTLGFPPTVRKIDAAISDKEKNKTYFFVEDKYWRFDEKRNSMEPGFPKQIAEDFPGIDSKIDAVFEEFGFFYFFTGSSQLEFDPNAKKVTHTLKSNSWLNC
Sequence of Adenylosuccinate synthetase isozyme 2 (P30520 whole entry): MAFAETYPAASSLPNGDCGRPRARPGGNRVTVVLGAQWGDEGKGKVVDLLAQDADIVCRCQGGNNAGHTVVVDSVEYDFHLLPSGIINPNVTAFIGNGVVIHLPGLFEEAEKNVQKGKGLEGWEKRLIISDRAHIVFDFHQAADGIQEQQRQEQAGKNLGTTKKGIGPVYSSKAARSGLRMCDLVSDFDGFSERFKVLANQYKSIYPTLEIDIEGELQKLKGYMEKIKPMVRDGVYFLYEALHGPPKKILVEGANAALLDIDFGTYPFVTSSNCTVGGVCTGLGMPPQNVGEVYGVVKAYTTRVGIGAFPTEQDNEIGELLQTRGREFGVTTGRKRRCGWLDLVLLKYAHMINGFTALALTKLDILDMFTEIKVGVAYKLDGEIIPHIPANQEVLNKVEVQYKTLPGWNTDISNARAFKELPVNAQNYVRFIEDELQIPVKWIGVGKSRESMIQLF
Sequence of Neuraminidase (Influenza A virus (A/Puerto Rico/8/1934(H1N1)), UniProt P03468) (P03468 whole entry): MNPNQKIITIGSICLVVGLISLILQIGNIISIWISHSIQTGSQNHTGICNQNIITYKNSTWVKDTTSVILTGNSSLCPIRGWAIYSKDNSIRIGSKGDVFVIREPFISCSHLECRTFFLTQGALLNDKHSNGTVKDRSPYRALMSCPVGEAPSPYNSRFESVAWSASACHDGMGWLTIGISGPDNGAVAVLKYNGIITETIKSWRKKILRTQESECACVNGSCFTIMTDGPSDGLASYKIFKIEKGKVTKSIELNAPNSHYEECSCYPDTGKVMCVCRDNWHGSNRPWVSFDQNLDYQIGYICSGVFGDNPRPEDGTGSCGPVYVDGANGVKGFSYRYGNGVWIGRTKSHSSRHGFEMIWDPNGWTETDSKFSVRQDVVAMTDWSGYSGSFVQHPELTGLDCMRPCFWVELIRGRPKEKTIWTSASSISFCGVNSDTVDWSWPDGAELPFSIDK
Sequence of Acetylcholinesterase (Rattus norvegicus, UniProt P37136) (P37136 whole entry): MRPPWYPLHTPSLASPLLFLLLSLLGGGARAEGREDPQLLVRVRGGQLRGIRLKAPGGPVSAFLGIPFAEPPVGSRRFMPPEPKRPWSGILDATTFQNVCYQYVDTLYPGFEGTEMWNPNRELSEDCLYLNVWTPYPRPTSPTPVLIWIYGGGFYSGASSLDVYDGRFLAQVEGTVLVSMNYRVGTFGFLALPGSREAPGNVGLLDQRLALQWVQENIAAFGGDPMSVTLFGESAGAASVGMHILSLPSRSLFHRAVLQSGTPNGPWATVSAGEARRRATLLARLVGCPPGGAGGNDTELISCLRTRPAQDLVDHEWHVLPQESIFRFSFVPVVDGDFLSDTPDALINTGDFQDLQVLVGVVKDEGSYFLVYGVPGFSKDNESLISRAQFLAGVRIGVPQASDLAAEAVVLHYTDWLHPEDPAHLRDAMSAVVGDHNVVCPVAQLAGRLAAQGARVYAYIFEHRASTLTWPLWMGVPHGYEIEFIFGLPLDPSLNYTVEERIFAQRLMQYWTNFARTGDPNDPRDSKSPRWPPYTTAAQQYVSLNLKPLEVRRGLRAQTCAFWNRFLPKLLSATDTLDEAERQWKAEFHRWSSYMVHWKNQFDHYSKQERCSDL
Sequence of Thymidylate synthase (Lactobacillus casei, UniProt P00469) (P00469 whole entry): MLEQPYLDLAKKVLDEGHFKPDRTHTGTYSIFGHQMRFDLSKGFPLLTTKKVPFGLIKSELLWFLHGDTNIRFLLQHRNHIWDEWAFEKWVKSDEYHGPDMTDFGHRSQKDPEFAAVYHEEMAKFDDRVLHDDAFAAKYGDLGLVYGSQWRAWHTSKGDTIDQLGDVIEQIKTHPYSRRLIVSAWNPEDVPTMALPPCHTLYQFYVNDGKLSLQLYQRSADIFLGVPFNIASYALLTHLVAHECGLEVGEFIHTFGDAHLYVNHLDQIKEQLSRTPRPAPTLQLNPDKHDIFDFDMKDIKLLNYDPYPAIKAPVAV
Sequence of Interstitial collagenase (P03956 whole entry): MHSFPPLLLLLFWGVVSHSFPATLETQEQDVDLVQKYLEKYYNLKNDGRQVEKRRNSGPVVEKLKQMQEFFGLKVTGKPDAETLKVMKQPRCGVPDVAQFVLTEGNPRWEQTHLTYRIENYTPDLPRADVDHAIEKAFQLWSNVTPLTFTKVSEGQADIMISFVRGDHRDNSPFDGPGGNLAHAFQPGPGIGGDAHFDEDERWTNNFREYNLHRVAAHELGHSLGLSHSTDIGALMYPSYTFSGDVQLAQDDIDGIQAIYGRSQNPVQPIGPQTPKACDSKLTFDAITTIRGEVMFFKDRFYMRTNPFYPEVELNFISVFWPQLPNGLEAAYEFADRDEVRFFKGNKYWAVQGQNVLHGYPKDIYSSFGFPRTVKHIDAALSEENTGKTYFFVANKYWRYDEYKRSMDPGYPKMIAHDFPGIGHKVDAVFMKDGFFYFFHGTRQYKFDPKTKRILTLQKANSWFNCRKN
Sequence of Bcl-2-like protein 1 (Q07817 whole entry): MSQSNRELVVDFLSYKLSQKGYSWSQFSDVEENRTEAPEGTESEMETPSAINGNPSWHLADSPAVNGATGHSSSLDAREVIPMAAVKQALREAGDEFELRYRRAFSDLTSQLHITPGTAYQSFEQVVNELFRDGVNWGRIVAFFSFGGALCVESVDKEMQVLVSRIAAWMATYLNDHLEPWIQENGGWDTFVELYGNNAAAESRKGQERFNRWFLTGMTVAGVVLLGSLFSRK
Sequence of Mitogen-activated protein kinase 10 (P53779 whole entry): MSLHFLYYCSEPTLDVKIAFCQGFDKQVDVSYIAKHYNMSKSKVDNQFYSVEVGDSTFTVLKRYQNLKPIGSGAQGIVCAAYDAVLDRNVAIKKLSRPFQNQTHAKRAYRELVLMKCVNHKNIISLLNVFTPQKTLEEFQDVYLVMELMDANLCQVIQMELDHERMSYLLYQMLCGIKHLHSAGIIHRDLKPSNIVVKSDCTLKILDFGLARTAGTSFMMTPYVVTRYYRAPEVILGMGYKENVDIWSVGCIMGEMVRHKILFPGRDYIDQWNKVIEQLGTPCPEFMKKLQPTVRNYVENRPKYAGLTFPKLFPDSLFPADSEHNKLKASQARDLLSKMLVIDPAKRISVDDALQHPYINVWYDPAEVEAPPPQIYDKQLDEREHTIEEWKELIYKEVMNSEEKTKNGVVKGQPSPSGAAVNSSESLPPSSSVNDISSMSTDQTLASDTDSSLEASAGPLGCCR
Sequence of Thymidylate synthase (Homo sapiens, UniProt P04818) (P04818 whole entry): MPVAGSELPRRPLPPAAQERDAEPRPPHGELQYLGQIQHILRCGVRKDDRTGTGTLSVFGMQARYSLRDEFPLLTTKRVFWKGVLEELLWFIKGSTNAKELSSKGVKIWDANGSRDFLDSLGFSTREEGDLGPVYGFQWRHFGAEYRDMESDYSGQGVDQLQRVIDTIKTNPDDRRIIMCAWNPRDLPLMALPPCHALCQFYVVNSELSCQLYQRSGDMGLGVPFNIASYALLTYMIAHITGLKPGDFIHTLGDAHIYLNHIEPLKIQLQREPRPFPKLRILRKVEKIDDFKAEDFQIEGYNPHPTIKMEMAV
Description for Carbonic anhydrase: Inhibitory concentration against carbonic anhydrase

SMILES: N=C(N)c1ccc2cccc(Nc3ncccn3)c2c1
- Bioavailabiility [1]: Not orally available

SMILES: O=C(O)/C=C/C=C/c1cccc(Oc2cc(Cl)cc(Cl)c2)c1
- IC50 (Human papillomavirus [2]): 10 µM

SMILES: O=C(O)/C=C/C=C/c1ccc(Oc2ccccc2)cc1
- IC50 (Human papillomavirus [2]): 75 µM
- Kd (Human papillomavirus [3]): 350 µM

SMILES: O=C(O)c1ccc(-c2cc(Cl)cc(Cl)c2)cc1
- IC50 (Human papillomavirus [2]): 150 µM
- Kd (Human papillomavirus [3]): 60 µM

SMILES: CC(=O)N[C@H]1[C@H](N)C=C(C(=O)O)C[C@@H]1N
- IC50 [4]: 31000 nM

SMILES: CONC(=O)c1c(OCCOc2ccc(-c3ccc(C#N)cc3)cc2)ccc2ccccc12
- IC50 (Stromelysin-1 [5]): 340 nM

SMILES: CNS(=O)(=O)c1ccc(O)c(C(=O)O)c1
- Ki (Caspase-3): > 1 mM

SMILES: CSc1nc(N)nc(N)n1
- Kd [6]: 1 mM

SMILES: NS(=O)(=O)c1ccc(CSCc2ccc(C(=O)O)cc2)cc1
- IC50 (Carbonic anhydrase): 0.084 µM

SMILES: O=C(NCCCCN1CCOCC1)c1cc2ccccc2o1
- IC50 (Interstitial collagenase): > 10 µM
- IC50 (Collagenase 3): 10 µM

SMILES: CCCNC(=O)c1ccc2nc(O)c(O)nc2c1
- Kd (Nucleic Acid): > 100 µM

SMILES: NC(=O)CSCc1ccc(S(N)(=O)=O)cc1
- IC50 (Carbonic anhydrase): 0.77 µM

SMILES: O=C(Nc1ccccc1)c1c(Nc2ccccc2)[nH]c(=O)[nH]c1=O
- Ki [7]: 0.72 µM

SMILES: O=C(Nc1cccc(C(F)(F)F)c1)c1csc(-c2ccncc2)n1
- Ki [7]: 13 µM

SMILES: NCC[C@@H](NC(=O)c1ccco1)C(=O)N1CCNCC1
- Kd (Nucleic Acid): > 100 µM

SMILES: Nc1ccc2cccc(Nc3ncccn3)c2n1
- bioavailability [8]: 38%

SMILES: CO/N=C/c1ccc(O)c(O)c1
- IC50 [9]: 41 µM

SMILES: C1=CC2N=C3CCCCC3=C(NCCCCCCCNc3c4c(nc5ccccc35)CCCC4)C2C=C1 (stereo not drawn)
- IC50 (Acetylcholinesterase [10]): 0.4 nM

SMILES: O=C(Nc1ccccc1O)c1ccc(O)cc1
- Kd [11]: 800 µM

SMILES: NC(N)=Nc1nc(-c2ccc(CNc3cc4ccccc4[nH]3)s2)cs1
- Ki (Adenosine deaminase): 1200 nM

SMILES: O=CN(O)[C@@H](CCCN1C(=O)N[C@@]2(O[C@H](COP(=O)(O)O)[C@@H](O)[C@H]2O)C1=O)C(=O)O
- IC50 [12]: 43 nM

SMILES: N#CCc1cccc(-c2ccc(O)cc2)c1
- Kd (Stromelysin-1 [13]): 20 µM

SMILES: NCC[C@@H](NC(=O)c1ccc(-c2cccc(NC(=O)c3ccc4nc(O)c(O)nc4c3)c2)o1)C(=O)N1CCNCC1
- Kd (Nucleic Acid): 6.5 µM

SMILES: CCn1c2ccccc2c2cc(/C=N\OC)ccc21
- IC50 [9]: 40 µM

SMILES: CC(=O)N1CCN(C(=O)/C=C/c2cccc([N+](=O)[O-])c2)CC1
- IC50 [14]: 80 µM

SMILES: CCn1c2ccccc2c2cc(/C=N\OCCO/N=C/c3ccc(O)c(O)c3)ccc21
- IC50 [9]: 0.064 µM

SMILES: Nc1ccc2cccc(O)c2n1
- Ki [15]: 56 µM

SMILES: O=C(O)c1ccc2nc(O)c(O)nc2c1
- Kd (Nucleic Acid): > 100 µM

SMILES: CC(=O)N1CCN(C(=O)/C=C/c2ccc(Sc3ccc4[nH]ccc4c3)c(Cl)c2)CC1
- half-life [16]: 282 min

SMILES: O=C(O)c1cc2ccccc2s1
- Kd [17]: > 1 mM

SMILES: CN(C)C(=O)[C@H](O)[C@H](Cc1ccccc1)NC(=O)c1cc2cc(Cl)ccc2[nH]1
- IC50 [18]: 130 nM

SMILES: CCC(CC)N[C@@H]1C=C(C(=O)O)C[C@H](N)[C@H]1NC(C)=O
- IC50 [4]: 85 nM

SMILES: O=C(O)CCCc1ccc(Oc2ccccc2)cc1
- Kd (Human papillomavirus [3]): 1900 µM

SMILES: c1ccc(NCCCCCCCNc2c3c(nc4ccccc24)CCCC3)cc1
- IC50 (Acetylcholinesterase [10]): 390 nM

SMILES: COc1cc(C(=O)C(=O)N2CCCC[C@H]2C(=O)OCCCOc2ccc(C(=O)Nc3ccc(O)cc3)cc2)cc(OC)c1OC
- Kd [11]: 0.019 µM

SMILES: COC(=O)[C@@H]1CCCCN1C(=O)C(=O)c1cc(OC)c(OC)c(OC)c1
- Kd [11]: 2 µM

SMILES: O=C(O)CC[C@H](NC(=O)c1ccc(S(=O)(=O)N2CCC[C@@H]2C(=O)O)cc1)C(=O)O
- Ki (Thymidylate synthase [19]): 24 µM

SMILES: COCCNC(=O)c1cc2cc(Cl)ccc2[nH]1
- IC50 [18]: 12500 nM

SMILES: CC(=O)N[C@@H]1[C@@H](N)CC(C(=O)O)=C[C@H]1NCCCc1ccccc1
- IC50 [4]: 1640 nM

SMILES: Cc1cc(C)c(N(Cc2ccccc2)S(=O)(=O)c2ccc(OCCNC(=O)c3cc4ccccc4o3)cc2)c(C(=O)NO)c1
- IC50 (Interstitial collagenase): > 10 µM

SMILES: CN(C)CC/C=C(\c1ccc(Cl)cc1)c1ccc(CCCc2ccc(/C(=C\CCN(C)C)c3ccc(Cl)cc3)cc2)cc1
- IC50 (Bcl-2-like protein 1): 10 µM

SMILES: Nc1nc(NC2Cc3ccccc3C2)nc(N2CCCCC2)n1
- Ki [20]: 8 µM

SMILES: CN(C)CCC=C(c1ccc(Cl)cc1)c1ccc(Cl)cc1
- IC50 (Bcl-2-like protein 1): 180 µM

SMILES: O=C(Nc1ccc(O)cc1)c1ccc(O)cc1
- Kd [11]: 100 µM

SMILES: Cc1ccc(S(=O)(=O)N2CCC[C@@H]2C(=O)O)cc1
- Ki (Thymidylate synthase [21]): 1.1 mM

SMILES: O=C(O)CCNC(=O)[C@H]1CCCN1S(=O)(=O)c1ccc(C(=O)N[C@@H](CCC(=O)O)C(=O)O)cc1
- Ki (Thymidylate synthase [19]): 0.33 µM

SMILES: COc1ccc(-c2cc(C3CCN(C(=O)CNC(=O)[C@@H](CC(C)C)N=C(N)N)CC3)n(C)n2)c(Cl)c1Cl
- IC50 [22]: 3000 nM

SMILES: CC(C)C[C@@H](NC(=N)N)C(=O)NCC(=O)N1CCC(c2cc(-c3ccc(OCc4ccc(C(=O)O)o4)c(Cl)c3Cl)nn2C)CC1
- IC50 [22]: 60 nM

SMILES: O=C(NCCOCCOCCNC(=O)c1cc2cc(Cl)ccc2[nH]1)c1cc2cc(Cl)ccc2[nH]1
- IC50 [18]: 6 nM

SMILES: NCc1nc2ccc(NCc3ccccc3OCc3ccccc3)cc2[nH]1
- IC50 [23]: 13 µM

SMILES: Oc1ccc(-c2ccccc2)cc1
- Kd (Stromelysin-1 [13]): 280 µM

SMILES: NS(=O)(=O)c1ccc(N/N=C2\C(=O)Nc3ccc(Cl)cc32)cc1 [GW280670X]
- IC50 [24]: 30 nM

SMILES: O=CN(O)CC(=O)O [HADACIDIN]
- IC50 [12]: 3500 nM

SMILES: O=C1NC(=O)[C@@]2(N1)O[C@H](COP(=O)(O)O)[C@@H](O)[C@H]2O [PHOSPHOHYDANTOCIDIN]
- IC50 [12]: 675 nM

SMILES: CC[N+](C)(CC)CCC[n+]1c(-c2ccccc2)c2cc(N)ccc2c2ccc(N)cc21 [PROPIDIUM]
- Kd (Acetylcholinesterase [25]): 1100 nM
